The NIST ThermoML archive (doi:10.1016/j.jct.2009.05.004)
Numbers after ± are expanded uncertainties.

Experiment: mn = molality of the nth substance listed, in mol/kg
Details: Liquid, Vibrating tube method

[Br-].[Br-].[Zn+2] [zinc bromide] + CCO
Details	mass density [kg/m3]
298.15 K, 39998 kPa, m1 = 0.1696	842.43 ± 0.69
298.16 K, 5021 kPa, m1 = 1.887	1058.5 ± 0.62
298.16 K, 15032 kPa, m1 = 0.05681	807.29 ± 0.65
298.16 K, 15201 kPa, m1 = 0.9305	937 ± 0.62
298.16 K, 15612 kPa, m1 = 0.1696	825.53 ± 0.65
298.16 K, 15624 kPa, m1 = 0.3043	845.7 ± 0.64
298.16 K, 20014 kPa, m1 = 0.4384	869.08 ± 0.64
298.16 K, 29932 kPa, m1 = 0.3043	856.21 ± 0.66
298.16 K, 34951 kPa, m1 = 0.1696	839.25 ± 0.68
298.16 K, 35026 kPa, m1 = 1.887	1081.92 ± 0.64
298.17 K, 5457 kPa, m1 = 0.3043	837.46 ± 0.63
298.17 K, 25045 kPa, m1 = 0.05681	814.8 ± 0.67
298.17 K, 25140 kPa, m1 = 1.887	1074.74 ± 0.63
298.17 K, 25416 kPa, m1 = 0.1696	832.79 ± 0.66
298.17 K, 35024 kPa, m1 = 0.9305	951.54 ± 0.63
298.17 K, 39854 kPa, m1 = 0.3043	862.75 ± 0.68
313.11 K, 20023 kPa, m1 = 0.1696	817.08 ± 0.66
313.11 K, 39787 kPa, m1 = 1.887	1072.61 ± 0.63
313.12 K, 29927 kPa, m1 = 1.887	1065.27 ± 0.63
313.12 K, 34843 kPa, m1 = 1.887	1069.01 ± 0.63
313.12 K, 39907 kPa, m1 = 0.1696	831.46 ± 0.7
313.13 K, 4920 kPa, m1 = 0.4384	843.98 ± 0.63
313.13 K, 14572 kPa, m1 = 0.1696	812.62 ± 0.65
313.13 K, 24931 kPa, m1 = 0.1696	820.9 ± 0.67
313.13 K, 25016 kPa, m1 = 1.887	1061.4 ± 0.62
313.13 K, 35021 kPa, m1 = 0.05681	810.73 ± 0.7
313.14 K, 5014 kPa, m1 = 0.05681	786.55 ± 0.64
313.14 K, 5102 kPa, m1 = 0.3043	824.32 ± 0.63
313.14 K, 9947 kPa, m1 = 0.9305	919.42 ± 0.62
313.14 K, 29730 kPa, m1 = 0.4384	864.47 ± 0.66
313.14 K, 34690 kPa, m1 = 0.4384	868 ± 0.66
313.14 K, 39625 kPa, m1 = 0.3043	851.54 ± 0.68
313.15 K, 1265 kPa, m1 = 0.05681	783.06 ± 0.63
313.15 K, 1326 kPa, m1 = 0.3043	820.84 ± 0.63
313.15 K, 1425 kPa, m1 = 1.49	988.5 ± 0.62
313.15 K, 5027 kPa, m1 = 1.49	991.85 ± 0.62
313.15 K, 9994 kPa, m1 = 1.887	1048.64 ± 0.62
313.15 K, 10024 kPa, m1 = 0.05681	791.06 ± 0.65
313.15 K, 10245 kPa, m1 = 0.3043	828.9 ± 0.64
313.15 K, 10627 kPa, m1 = 1.49	996.89 ± 0.62
313.15 K, 15329 kPa, m1 = 1.49	1000.98 ± 0.62
313.15 K, 19809 kPa, m1 = 0.9305	927.83 ± 0.63
313.15 K, 19932 kPa, m1 = 0.4384	856.94 ± 0.64
313.15 K, 20014 kPa, m1 = 0.3043	837.09 ± 0.65
313.15 K, 20065 kPa, m1 = 0.05681	799.53 ± 0.67
313.15 K, 20324 kPa, m1 = 1.49	1005.17 ± 0.62
313.15 K, 24735 kPa, m1 = 0.4384	860.72 ± 0.65
313.15 K, 25035 kPa, m1 = 0.9305	932.01 ± 0.63
313.15 K, 25647 kPa, m1 = 1.49	1009.46 ± 0.62
313.15 K, 29901 kPa, m1 = 0.9305	935.73 ± 0.63
313.15 K, 29925 kPa, m1 = 0.1696	824.61 ± 0.68
313.15 K, 29954 kPa, m1 = 1.49	1012.81 ± 0.62
313.15 K, 29964 kPa, m1 = 0.05681	807.13 ± 0.69
313.15 K, 34524 kPa, m1 = 0.3043	848.04 ± 0.67
313.15 K, 34627 kPa, m1 = 1.49	1016.31 ± 0.62
313.15 K, 34851 kPa, m1 = 0.1696	828.08 ± 0.69
313.15 K, 39846 kPa, m1 = 1.49	1020.06 ± 0.62
313.15 K, 39878 kPa, m1 = 0.9305	942.83 ± 0.63
313.15 K, 39881 kPa, m1 = 0.4384	871.49 ± 0.67
313.15 K, 39914 kPa, m1 = 0.05681	814.03 ± 0.72
313.16 K, 1622 kPa, m1 = 0.4384	840.91 ± 0.62
313.16 K, 9861 kPa, m1 = 0.4384	848.44 ± 0.63
313.16 K, 14924 kPa, m1 = 0.4384	852.81 ± 0.64
313.16 K, 15002 kPa, m1 = 0.9305	923.82 ± 0.62
313.16 K, 15021 kPa, m1 = 0.05681	795.37 ± 0.66
313.16 K, 15032 kPa, m1 = 0.3043	833 ± 0.64
313.16 K, 29952 kPa, m1 = 0.3043	844.75 ± 0.67
313.16 K, 34974 kPa, m1 = 0.9305	939.43 ± 0.63
313.17 K, 10022 kPa, m1 = 0.1696	808.74 ± 0.64
313.17 K, 15110 kPa, m1 = 1.887	1053.14 ± 0.62
313.17 K, 20144 kPa, m1 = 1.887	1057.41 ± 0.62
313.17 K, 25481 kPa, m1 = 0.05681	803.78 ± 0.68
313.17 K, 25921 kPa, m1 = 0.3043	841.73 ± 0.66
313.18 K, 4967 kPa, m1 = 0.9305	914.91 ± 0.62
313.19 K, 1520 kPa, m1 = 0.9305	911.69 ± 0.62
313.19 K, 5004 kPa, m1 = 1.887	1044.1 ± 0.62
313.2 K, 1456 kPa, m1 = 0.1696	801 ± 0.63
313.2 K, 4848 kPa, m1 = 0.1696	804.13 ± 0.63
313.24 K, 1850 kPa, m1 = 1.887	1041.15 ± 0.62
333.12 K, 1327 kPa, m1 = 0.1696	782.58 ± 0.63
333.12 K, 1898 kPa, m1 = 0.9305	892.88 ± 0.62
333.12 K, 4943 kPa, m1 = 1.887	1024.22 ± 0.62
333.12 K, 9762 kPa, m1 = 0.4384	830.56 ± 0.63
333.12 K, 19882 kPa, m1 = 0.4384	840.07 ± 0.65
333.12 K, 39840 kPa, m1 = 1.887	1055.35 ± 0.63
333.13 K, 5145 kPa, m1 = 0.05681	769.04 ± 0.64
333.13 K, 24749 kPa, m1 = 0.4384	844.29 ± 0.66
333.13 K, 29989 kPa, m1 = 0.9305	919.06 ± 0.63
333.13 K, 34942 kPa, m1 = 0.9305	922.93 ± 0.63
333.14 K, 5187 kPa, m1 = 0.4384	825.95 ± 0.63
333.14 K, 19787 kPa, m1 = 0.9305	910.38 ± 0.63
333.14 K, 20014 kPa, m1 = 0.3043	820.51 ± 0.66
333.14 K, 25451 kPa, m1 = 0.05681	788.08 ± 0.69
333.14 K, 34776 kPa, m1 = 1.887	1051.46 ± 0.62
333.15 K, 1541 kPa, m1 = 0.05681	765.27 ± 0.63
333.15 K, 1627 kPa, m1 = 0.3043	802.62 ± 0.63
333.15 K, 1698 kPa, m1 = 1.49	969.07 ± 0.62
333.15 K, 4776 kPa, m1 = 0.1696	786.15 ± 0.63
333.15 K, 5045 kPa, m1 = 1.49	972.54 ± 0.62
333.15 K, 5098 kPa, m1 = 0.9305	896.23 ± 0.62
333.15 K, 10025 kPa, m1 = 0.05681	773.96 ± 0.65
333.15 K, 10027 kPa, m1 = 0.9305	901.19 ± 0.62
333.15 K, 10046 kPa, m1 = 1.887	1029.4 ± 0.62
333.15 K, 10624 kPa, m1 = 1.49	978.11 ± 0.62
333.15 K, 15214 kPa, m1 = 1.887	1034.43 ± 0.62
333.15 K, 15326 kPa, m1 = 1.49	982.61 ± 0.62
333.15 K, 15924 kPa, m1 = 0.3043	816.79 ± 0.65
333.15 K, 19921 kPa, m1 = 0.05681	783.27 ± 0.67
333.15 K, 19984 kPa, m1 = 1.49	986.89 ± 0.62
333.15 K, 24658 kPa, m1 = 1.49	991.01 ± 0.62
